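Grown in 96-well plates, cells were treated for 48 hours with each compound at five concentrations. Insufficient inhibition: endpoint recorded as highest concentration tested. GI50: concentration for 50% inhibition of growth.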 Active and inactive are the calls of the source. No stated cut-off is given here; in the data, active = GI50 up to about 1.1 µM and inactive = higher.
Columns and labels:
Experiment in all cases: NCI anticancer screen, dose series, 48 h
[1] = tested on: HT-29
[2] = tested on: SF-295
[3] = tested on: SNB-75
[4] = tested on: OVCAR-8
[5] = tested on: NCI/ADR-RES
[6] = tested on: HCC 2998
[7] = tested on: EKVX
[8] = tested on: U-251
[9] = tested on: PC-3
[10] = tested on: K562
[11] = tested on: CAKI-1
[12] = tested on: DU-145
[13] = tested on: SN12C
[14] = tested on: OVCAR-4
[15] = tested on: UO-31
[16] = tested on: SR
[17] = tested on: SW-620
[18] = tested on: HOP-92
[19] = tested on: RXF 393
[20] = tested on: RPMI-8226

Structure (SMILES)	GI50 [1]	GI50 [2]	GI50 [3]	GI50 [4]	GI50 [5]	GI50 [6]	GI50 [7]	GI50 [8]	GI50 [9]	GI50 [10]	GI50 [11]	GI50 [12]	GI50 [13]	GI50 [14]	GI50 [15]	GI50 [16]	GI50 [17]	GI50 [18]	GI50 [19]	GI50 [20]
CCOC(=O)c1c(C)n(CCN2CCN(C)CC2)c2ccc(OC)cc12	24.7 µM (inactive)	34.8 µM (inactive)	24.8 µM (inactive)	> 100 µM (inactive)	69.7 µM (inactive)	16.6 µM (inactive)	> 100 µM (inactive)	31.8 µM (inactive)	34 µM (inactive)	20.7 µM (inactive)	32.3 µM (inactive)	> 100 µM (inactive)	50.9 µM (inactive)	48.6 µM (inactive)	35.1 µM (inactive)	20 µM (inactive)	37.5 µM (inactive)	14 µM (inactive)	30.1 µM (inactive)	20.4 µM (inactive)
Nc1ccc(-c2ccc(Nc3cc(S(=O)(=O)O)c(N)c4c3C(=O)c3ccccc3C4=O)cc2)c(S(=O)(=O)O)c1	> 100 µM (inactive)	> 100 µM (inactive)	> 100 µM (inactive)	> 100 µM (inactive)	> 100 µM (inactive)	> 100 µM (inactive)	> 100 µM (inactive)	> 100 µM (inactive)	> 100 µM (inactive)	> 100 µM (inactive)	> 100 µM (inactive)	> 100 µM (inactive)	> 100 µM (inactive)	> 100 µM (inactive)	> 100 µM (inactive)	> 100 µM (inactive)	> 100 µM (inactive)	> 100 µM (inactive)	> 100 µM (inactive)	> 100 µM (inactive)
C[C@]12CC[C@@H]3c4cc(OCC(F)(F)F)c(O)cc4CC[C@H]3[C@@H]1CC[C@@H]2O	4.06 µM (inactive)	1.54 µM (inactive)	1.63 µM (inactive)	4.83 µM (inactive)	2.24 µM (inactive)	5.93 µM (inactive)	8.17 µM (inactive)	2.22 µM (inactive)	2.28 µM (inactive)	0.438 µM (active)	2.74 µM (inactive)	6.3 µM (inactive)	1.86 µM (inactive)	17.9 µM (inactive)	8.65 µM (inactive)	0.335 µM (active)	1.05 µM (active)	9.31 µM (inactive)	1.52 µM (inactive)	1.17 µM (inactive)
CCCCOC(=O)N[C@H]1CCc2cc(OC)c(OC)c(OC)c2-c2ccc(SC)c(=O)cc21	< 0.01 µM (active)	< 0.01 µM (active)	< 0.0109 µM (active)	< 0.01 µM (active)	< 0.01 µM (active)	< 0.01 µM (active)	16.3 µM (inactive)	< 0.01 µM (active)	0.0127 µM (active)	< 0.0369 µM (active)	< 0.01 µM (active)	< 0.01 µM (active)	< 0.01 µM (active)	2.2 µM (inactive)	< 0.0231 µM (active)	< 0.0568 µM (active)	< 0.01 µM (active)	< 0.01 µM (active)	< 0.031 µM (active)	< 0.01 µM (active)
CCCCCCCC(=O)OC[n+]1ccc(-c2c(COC(=O)NC(C)C)c(COC(=O)NC(C)C)c3n2CCC3)cc1	42.6 µM (inactive)	53.5 µM (inactive)	42.3 µM (inactive)	43.1 µM (inactive)	53.8 µM (inactive)	> 100 µM (inactive)	> 79.6 µM (inactive)	51.5 µM (inactive)	> 65.2 µM (inactive)	34.4 µM (inactive)	18.6 µM (inactive)	23.4 µM (inactive)	33.4 µM (inactive)	38.6 µM (inactive)	42.4 µM (inactive)	5.65 µM (inactive)	23.2 µM (inactive)	26.4 µM (inactive)	21.1 µM (inactive)	22.1 µM (inactive)
Cc1cccc2c(N)c3cccc(C(=O)NCCNCCN)c3nc12	2.9 µM (inactive)	3.68 µM (inactive)	0.631 µM (active)	0.995 µM (active)	27.9 µM (inactive)	6.79 µM (inactive)	10.4 µM (inactive)	0.736 µM (active)	10.8 µM (inactive)	8.28 µM (inactive)	3.8 µM (inactive)	2.62 µM (inactive)	0.179 µM (active)	2.67 µM (inactive)	12.3 µM (inactive)	8.09 µM (inactive)	8.02 µM (inactive)	7.6 µM (inactive)	12.6 µM (inactive)	9.55 µM (inactive)
O=C1Cc2c(-c3ccc(Cl)cc3)cc(-c3ccccc3)nc2-c2ccccc2N1	4.5 µM (inactive)	6.38 µM (inactive)	3.82 µM (inactive)	2.76 µM (inactive)	6.19 µM (inactive)	4.06 µM (inactive)	10.5 µM (inactive)	3.08 µM (inactive)	19.4 µM (inactive)	15.1 µM (inactive)	4.86 µM (inactive)	8.18 µM (inactive)	3.71 µM (inactive)	6.62 µM (inactive)	4.34 µM (inactive)	7.13 µM (inactive)	11 µM (inactive)	2.4 µM (inactive)	4.81 µM (inactive)	9.25 µM (inactive)

Source: ChEMBL document CHEMBL1201862, “PubChem BioAssay data set” (2004)
